# Measurements published in US4191763A.
# Where two headings read alike, the source gives them in different places.
# Experiments:
# [1] = system: Ascaris lumbricoides var. suum; experiment: anthelmintic activity in mice infected with Ascaris, medicated feed; format: in vivo; settings: Example 13, 0.05 percent in diet; control 2.66
# Description: The feeds were utilized as diets for separate groups of mice, five mice per group. About twelve hours after initiation of the feeding, the mice were infected with Ascaris lumbricoides var. summ ova. Another group of five mice was fed the non-medicated feed to serve as a control but was similarly infected at the same time with Ascaris lumbricoides var. suum. All groups were fed their respective feed and maintained under normal laboratory conditions for a period of eight days, at which time all mice were taken off feed. On the ninth day, all mice were sacrificed and the lungs examined to determine the presence, and if present, numbers, of lesions of Ascaris lumbricoides var. suum.
# Another evaluation was conducted under the procedures reported in Example 11, except that the rates were varied. The results were as follows:
# In a further evaluation, the monoammonium salts of A16886I and A16886II were separately evaluated for the control of Ascaris lumbricoides var. suum. The evaluations were conducted in accordance with the procedure reported in Example 11 at a concentration in the diet of 0.05 percent.
# Pseudomonas solanacearum = format: in vivo, tomato plants; settings: scale 0 (no control) to 4 (complete control)
# tomato plants = experiment: field trial, crop injury; format: in vivo; settings: scale 0 (no injury) to 10 (dead plants)
# Description: (§1) A mixture of the monoammonium salt of A16886I and the monoammonium salt of A16886II was tested under field conditions for the control of Xanthomonas vesicatoria (bacterial spot) on mature bearing tomato plants. The mixture of the two salts was dispersed in water at a concentration of 100, 200, or 400 parts per million and applied to the plants at the rate of 75 gallons per acre. Application was made with a CO2 sprayer at 50 psi. Plants were sprayed twice, on successive days; after the second spray had dried, all plants were wounded by sand blasting and then within one minute the plants were inoculated with a bacterial inoculum of Xanthomonas vesicatoria. Three days later, a third spray application of the aqueous formulation of A16886 was made. Readings were made one week and two weeks after the last spray treatment. Controls consisted of groups of plants (1) sand blasted and inoculated; (2) sand blasted only; (3) untreated; and (4) treated with streptomycin (on the same three-day spraying schedule, at a concentration of 100, 200, or 400 parts per million of aqueous solution, using a rate of 75 gallons per acre), sand blasted, and inoculated. The results were as set forth in the following table, in which crop injury is reported on a scale of 0-10, with 0=no injury and 10=dead plants; and control of bacterial spot is reported on a percentage basis.
# Xanthomonas vesicatoria = experiment: field trial, control of bacterial spot on tomato plants; format: in vivo
# Description: as §1
# [2] = First Reading, 100 parts/million
# [3] = First Reading, 200 parts/million
# [4] = First Reading, 400 parts/million
# [5] = Second Reading, 100 parts/million
# [6] = Second Reading, 200 parts/million
# [7] = Second Reading, 400 parts/million
SMILES,Average Number of Lung Lesions Per Group [1],"Disease Rating (Pseudomonas solanacearum; Example 7, 10 ppm.)","Disease Rating (Pseudomonas solanacearum; Example 7, 100 ppm.)","rating (Pseudomonas solanacearum; Example 8, 100 ppm.)","rating (Pseudomonas solanacearum; Example 8, 200 ppm.)","rating (Pseudomonas solanacearum; Example 8, 400 ppm.)",Crop Injury Ratings (tomato plants; [2]),Crop Injury Ratings (tomato plants; [3]),Crop Injury Ratings (tomato plants; [4]),Crop Injury Ratings (tomato plants; [5]),Crop Injury Ratings (tomato plants; [6]),Crop Injury Ratings (tomato plants; [7]),Percent Bacterial Spot Control (Xanthomonas vesicatoria; [2]) [%],Percent Bacterial Spot Control (Xanthomonas vesicatoria; [3]) [%],Percent Bacterial Spot Control (Xanthomonas vesicatoria; [4]) [%],Percent Bacterial Spot Control (Xanthomonas vesicatoria; [5]) [%],Percent Bacterial Spot Control (Xanthomonas vesicatoria; [6]) [%],Percent Bacterial Spot Control (Xanthomonas vesicatoria; [7]) [%]
NC(=O)OCC1=C(C(=O)O)N2C(=O)C(NC(=O)CCCC(N)C(=O)O)[C@H]2SC1 (stereo partly drawn) [7-(5-amino-5-carboxyvaleramido)-3-(carbamoyloxymethyl)-3-cephem-4-carboxylic acid],0.20,1,4,,,,,,,,,,,,,,,
COC1(NC(=O)CCCC(N)C(=O)O)C(=O)N2C(C(=O)O)=C(COC(N)=O)CS[C@@H]21 (stereo partly drawn) [7-(5-amino-5-carboxyvaleramido)-3-(carbamoyloxymethyl)-7-methoxy-3-cephem-4-carboxylic acid],0.46,2,4,4,4,4,,,,,,,,,,,,
[H]/N=C(/N)N[C@H]1[C@H](O)[C@@H](O)[C@H](O[C@@H]2O[C@@H](C)[C@](O)(C=O)[C@H]2O[C@@H]2O[C@@H](CO)[C@H](O)[C@@H](O)[C@@H]2NC)[C@@H](N/C(N)=N\[H])[C@@H]1O [Streptomycin],,,,,,,0,0,0,0,0,0,83,81,83,57,37,59
